Data published in US20220047711A1, “PHOTOCROSSLINKING PEPTIDES FOR SITE SPECIFIC CONJUGATION TO FC-CONTAINING PROTEINS” (Genentech, Inc., priority 2018, published 2022).
“And” between values parts separate entries of the source, which are not always exact repeats. Identical values can stand only once. Blank lines part the entries; values can stand above or below the compound they belong to.

Legend:
Trastuzumab (TMab) [1] = biological target: T1, Trastuzumab (TMab) (Homo sapiens, UniProt P01857, D239E/L241M); assay: SPR binding of peptides to immobilized Trastuzumab; details: for Kd: TMab, FIG. 3C; for reduced binding affinity (Kd fold decreased) compared to the Fc-III peptide: relative to Fc-III
T1 construct: Genentech (HERCEPTIN)
Method: Example 2: SPR binding experiments. Kinetics of peptide binding to Trastuzumab were measured by surface plasmon resonance (SPR) on a Biacore 3000 instrument (GE Healthcare) using a previously established method. (Gong, Y.; et al., Development of the Double Cyclic Peptide Ligand for Antibody Purification and Protein Detection. Bioconjugate chemistry 2016). An amine coupling kit (GE Healthcare) was used to immobilize Trastuzumab to the surface of a CM5 Sensor Chip (GE Healthcare). All injections were double-referenced with real-time reference channel subtraction and buffer blank injections. Data were analyzed using the BiaEvaluation software (version 4.1, GE Healthcare).

Trastuzumab (TMab) [2] = biological target: T1, Trastuzumab (TMab); assay: Photoconjugation (UV 365 nm) of peptide to Trastuzumab, DAR by LC-MS
Method: (§1) Example 2: Antibody conjugation. Conjugation reactions for photocrosslinking peptides were performed open and uncovered in V-bottom, clear, polystyrene 96-well plates (ThermoFisher, product #2605) with a final reaction volume of 50 μL. Unused wells were filled with 150 μL of deionized water. Optimized reactions were performed in 20 mM histidine acetate buffer, pH=5.5, with a final concentration of 48 μM antibody, 480 μM photo-crosslinking peptide, 480 μM 5-hydroxyindole ([…], Sigma-Aldrich), with 11% (v/v) DMSO. […] The DAR was assessed by LC-MS analysis of Fc/2 or heavy chain fragments generated by IdeS or DTT treatments of Trastuzumab, respectively.

Rituximab (human IgG1) = assay: Photoconjugation of peptide to Rituximab, DAR
human IgG4 antibody (A) = human IgG4 antibody (A) (Homo sapiens, UniProt P01861); assay: Photoconjugation of peptide to human IgG4 antibody A, DAR
Method: as §1

[3] = biological target: human IgG4 "YTE" mutant (B) (Homo sapiens, UniProt P01861, M132Y/S134T/T136E); assay: Photoconjugation of peptide to human IgG4 YTE mutant antibody B, DAR; details: Human IgG4 YTE mutant (no Met-252)
Method: as §1

rabbit IgG (C) = rabbit IgG (C) (Oryctolagus cuniculus, UniProt P01870); assay: Photoconjugation of peptide to rabbit IgG antibody C, DAR
Method: as §1

mouse IgG1 antibody (D) = mouse IgG1 antibody (D) (Mus musculus, UniProt P01868); assay: Photoconjugation of peptide to mouse IgG1 antibody D, DAR; details: Mouse IgG1 (no Met-252)
Method: as §1

Trastuzumab (TMab) [4] = biological target: T1, Trastuzumab (TMab); assay: Photoconjugation (UV 365 nm) of peptide to Trastuzumab, DAR by LC-MS; details: PBS, micro-centrifuge tubes on ice, hand-held 365 nm lamp, one hour
human IgG = details: previously reported, Gong et al. 2016; cited from earlier work
[5] = 96-well plate directly under 365 nm lamp, room temperature, 4.5 hours

Kd (Trastuzumab (TMab) [1]): ~70 µM and 70 µM
bound to TMab less tightly than BPA9 (Trastuzumab (TMab) [1]; relative to BPA9): ~150 fold
reduced binding affinity (Kd fold decreased) compared to the Fc-III peptide (Trastuzumab (TMab) [1]): greater than 4000 fold
DAR (Trastuzumab (TMab) [2]; [5]): ~1.7
DAR (photoconjugation efficiency) (Trastuzumab (TMab) [2]; FIG. 3C, peptide series comparison): 1.9
DAR (Trastuzumab (TMab) [2]; Row B: 267 μM BPA7, PBS, on ice (~4° C.), 4 hours): 1.5
DAR (Trastuzumab (TMab) [2]; Row C: 267 μM BPA7, histidine-acetate pH 5.5, on ice, 4 hours): 1.8
DAR (Trastuzumab (TMab) [2]; Row D: 267 μM BPA7, PBS, 267 μM 5-hydroxyindole, on ice, 4 hours): 1.4
DAR (Trastuzumab (TMab) [2]; Row E: 480 μM BPA7 (10-fold over antibody), histidine-acetate pH 5.5, 5-hydroxyindole, 6 hours, on ice): 1.9
DAR reached upon photoconjugation to BPA7 (Trastuzumab (TMab) [2]; Trastuzumab, Human IgG1): 2.0
DAR (Trastuzumab (TMab) [2]; irradiation chamber, Row A: 267 μM BPA7, PBS, room temperature, 4 hours): 1.8
DAR reached upon photoconjugation to BPA7 (human IgG4 antibody (A)): 2.0
DAR reached upon photoconjugation to BPA7 [3]: 0.0
DAR reached upon photoconjugation to BPA7 (rabbit IgG (C)): 1.2
DAR reached upon photoconjugation to BPA7 (mouse IgG1 antibody (D)): 0
drug-to-antibody ratio (DAR) (Trastuzumab (TMab) [4]): ~0.04
Compound: CC(=O)N[C@@H](CC(=O)O)C(=O)N[C@H]1CSSC[C@@H](C(=O)N[C@H](C(N)=O)[C@@H](C)O)NC(=O)[C@H](Cc2c[nH]c3ccccc23)NC(=O)[C@H](Cc2ccc(C(=O)c3ccccc3)cc2)NC(=O)[C@H](CC(C)C)NC(=O)[C@H](CCC(=O)O)NC(=O)CNC(=O)[C@H](CC(C)C)NC(=O)[C@H](Cc2c[nH]cn2)NC(=O)[C@H](Cc2c[nH]c3ccccc23)NC(=O)[C@H](C)NC1=O [BPA7, Ac-DCAWHLGELBWCT-NH2]
DAR reached upon photoconjugation to BPA7 (Rituximab (human IgG1)): 2.0

Kd (Trastuzumab (TMab) [1]): ~30 µM
reduced binding affinity (Kd fold decreased) compared to the Fc-III peptide (Trastuzumab (TMab) [1]): greater than 1700 fold
DAR (Trastuzumab (TMab) [2]; [5]): 1.2
Compound: CC(=O)N[C@@H](CC(=O)O)C(=O)N[C@H]1CSSC[C@@H](C(=O)N[C@H](C(N)=O)[C@@H](C)O)NC(=O)[C@H](Cc2c[nH]c3ccccc23)NC(=O)[C@H](C(C)C)NC(=O)[C@H](CC(C)C)NC(=O)[C@H](CCC(=O)O)NC(=O)CNC(=O)[C@H](Cc2ccc(C(=O)c3ccccc3)cc2)NC(=O)[C@H](Cc2c[nH]cn2)NC(=O)[C@H](Cc2c[nH]c3ccccc23)NC(=O)[C@H](C)NC1=O [BPA4, Ac-DCAWHBGELVWCT-NH2]

Compound: CC(=O)N[C@@H](CC(=O)O)C(=O)N[C@H]1CSSC[C@@H](C(=O)N[C@H](C(N)=O)[C@@H](C)O)NC(=O)[C@H](Cc2c[nH]c3ccccc23)NC(=O)[C@H](C(C)C)NC(=O)[C@H](CC(C)C)NC(=O)[C@H](CCC(=O)O)NC(=O)CNC(=O)[C@H](CC(C)C)NC(=O)[C@H](Cc2c[nH]cn2)NC(=O)[C@H](Cc2c[nH]c3ccccc23)NC(=O)[C@H](C)NC1=O [Fc-III]
Kd (human IgG): 0.07 µM

DAR (Trastuzumab (TMab) [2]; [5]): 0.2
Compound: Ac-DCAWBLGELVWCT-NH2 (DCAWXLGELVWCT; Ac, NH2; BPA non-natural residue; /note=“N-term Ac”; MOD_RES (5)..(5) p-benzoyl-L-phenylalanine; /note=“C-term NH2”) [BPA3, B = BPA]
